Reference: patent publication US8415342B2, “Besifloxacin ophthalmic composition for the treatment or control of infection” (Bausch & Lomb Incorporated, priority 2008, dated 2013)
In brackets after ≈: the same amount, converted by molar mass. Several values for one entry are separate records, joined by “and”; a condition that tells them apart may be missing. Equal values may be shown once. Read-outs that look alike come from different tables or passages of the source.

Key:
E. coli topoisomerase IV [1] = molecular target: T1, E. coli topoisomerase IV (Escherichia coli, UniProt P0AFI2+P20083); experiment: Catalytic inhibition of purified topoisomerase IV; format: biochemical; details: IC50 Topo IV, E. coli enzymes
T1 sequence (P0AFI2 whole entry): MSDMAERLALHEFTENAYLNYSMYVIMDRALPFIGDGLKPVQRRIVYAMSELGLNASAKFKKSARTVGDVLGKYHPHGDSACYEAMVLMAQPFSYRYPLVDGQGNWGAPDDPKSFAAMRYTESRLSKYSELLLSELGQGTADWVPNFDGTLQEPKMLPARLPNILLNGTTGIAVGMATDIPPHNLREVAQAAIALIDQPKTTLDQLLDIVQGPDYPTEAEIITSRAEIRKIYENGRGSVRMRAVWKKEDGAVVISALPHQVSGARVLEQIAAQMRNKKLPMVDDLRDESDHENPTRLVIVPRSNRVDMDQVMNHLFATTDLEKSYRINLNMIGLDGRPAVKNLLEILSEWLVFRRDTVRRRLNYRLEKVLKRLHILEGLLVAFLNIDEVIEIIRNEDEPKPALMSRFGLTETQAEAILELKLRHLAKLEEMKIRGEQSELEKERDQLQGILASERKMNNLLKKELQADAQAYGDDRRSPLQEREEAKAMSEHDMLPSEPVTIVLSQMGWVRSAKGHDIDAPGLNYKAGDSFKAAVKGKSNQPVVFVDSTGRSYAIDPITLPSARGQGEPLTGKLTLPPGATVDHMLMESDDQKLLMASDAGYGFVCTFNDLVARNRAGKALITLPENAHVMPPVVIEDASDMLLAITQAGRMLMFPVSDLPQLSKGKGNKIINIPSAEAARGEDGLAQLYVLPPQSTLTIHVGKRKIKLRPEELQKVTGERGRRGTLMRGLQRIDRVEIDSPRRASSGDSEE
T1 sequence (P20083 whole entry): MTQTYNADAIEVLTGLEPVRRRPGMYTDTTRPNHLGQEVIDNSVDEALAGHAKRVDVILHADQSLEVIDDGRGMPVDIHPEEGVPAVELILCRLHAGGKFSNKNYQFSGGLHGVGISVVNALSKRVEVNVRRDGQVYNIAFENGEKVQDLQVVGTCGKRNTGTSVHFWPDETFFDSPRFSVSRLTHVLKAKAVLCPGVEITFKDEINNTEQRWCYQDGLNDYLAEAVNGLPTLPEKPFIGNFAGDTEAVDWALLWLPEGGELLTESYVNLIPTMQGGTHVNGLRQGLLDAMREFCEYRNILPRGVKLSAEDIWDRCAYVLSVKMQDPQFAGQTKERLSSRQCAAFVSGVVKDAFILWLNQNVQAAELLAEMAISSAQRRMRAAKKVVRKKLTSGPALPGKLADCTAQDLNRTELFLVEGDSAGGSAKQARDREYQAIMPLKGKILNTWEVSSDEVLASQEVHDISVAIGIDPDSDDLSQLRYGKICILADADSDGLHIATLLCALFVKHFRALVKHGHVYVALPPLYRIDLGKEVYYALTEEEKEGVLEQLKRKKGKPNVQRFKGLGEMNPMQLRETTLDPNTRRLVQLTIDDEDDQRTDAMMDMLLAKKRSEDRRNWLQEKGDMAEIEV

E. coli topoisomerase IV [2] = molecular target: T1, E. coli topoisomerase IV; experiment: Cleavable complex stimulation (CC25), topoisomerase IV; format: biochemical; details: E. coli enzymes; concentration that produces 25% linearization of the DNA
[3] = test system: Pathogens Associated With Bacterial Conjunctivitis; experiment: Integrated besifloxacin MIC data from preclinical (nonclinical) studies (Table 8); format: cell-based
[4] = Clostridium perfringens, N 21, agar dilution

With `N[C@@H]1CCCCN(c2c(F)cc3c(=O)c(C(=O)O)cn(C4CC4)c3c2Cl)C1` [Besifloxacin, (R)-(+)-(3-amino-2,3,4,5,6,7-hexahydro-1H-azepin-1-yl)-8-chloro-1-cyclopropyl-6-fluoro-1,4,-dihydro-4-oxo-3-quinolinecarboxylic acid] the IC50 (E. coli topoisomerase IV [1]) was 23 µM and 25.4 µM, the “CC25 Topo IV” value (E. coli topoisomerase IV [2]) was 1.4 μM and 0.6 μg/mL and the MIC50 ([3]; Acinetobacter baumannii, Acinetobacter baumanii Quinolone-R, N 5, read-out: MIC50) was greater than 8 µg/mL. For the same molecule, the MIC50 ([3]; Acinetobacter baumannii, Acinetobacter baumanii Quinolone-S, N 43, read-out: MIC50) was 0.5 µg/mL (≈ 1.27 µM), the MIC90 ([3]; Acinetobacter baumannii, Acinetobacter baumanii Quinolone-S, N 43, read-out: MIC90) was 2 µg/mL (≈ 5.08 µM) and the MIC50 ([3]; Acinetobacter baumannii-calcoaceticus Quinolone-R, N 10, read-out: MIC50) was greater than 8 µg/mL. The MIC90 ([3]; Acinetobacter baumannii-calcoaceticus Quinolone-R, N 10, read-out: MIC90) was greater than 8 µg/mL, the “MIC Range” value ([3]; Acinetobacter baumannii-calcoaceticus Quinolone-S, N 23) was 0.12 to 4 µg/mL and the MIC50 ([3]; Acinetobacter baumannii-calcoaceticus Quinolone-S, N 23, read-out: MIC50) was 0.5 µg/mL (≈ 1.27 µM). The “MIC Range” value ([3]; Acinetobacter lwoffii, N 13) was 0.12 to 2 µg/mL, the MIC50 ([3]; Acinetobacter lwoffii, N 13, read-out: MIC50) was 0.5 µg/mL (≈ 1.27 µM) and the MIC90 ([3]; Acinetobacter lwoffii, N 13, read-out: MIC90) was 0.5 µg/mL (≈ 1.27 µM). For the same molecule, the MIC50 ([3]; Bacteroides fragilis, N 20, agar dilution, read-out: MIC50) was 0.5 µg/mL (≈ 1.27 µM), the MIC90 ([3]; Bacteroides fragilis, N 20, agar dilution, read-out: MIC90) was 1 µg/mL (≈ 2.54 µM) and the “MIC Range” value ([3]; Citrobacter koser Quinolone-R, N 1) was greater than 8 µg/mL. The “MIC Range” value ([3]; Citrobacter koser Quinolone-S, N 99) was 0.03 to 4 µg/mL, the MIC90 ([3]; Citrobacter koser Quinolone-S, N 99, read-out: MIC90) was 0.25 µg/mL (≈ 0.635 µM) and the MIC50 [3, 4] was 0.25 µg/mL (≈ 0.635 µM). For the same molecule, the MIC90 [3, 4] was 0.25 µg/mL (≈ 0.635 µM), the “MIC Range” value [3, 4] was 0.12 to 0.25 µg/mL and the “MIC Range” value ([3]; Corynebacterium species, N 30, agar dilution) was “≦0.06-2 μg/mL”. It also gave an MIC50 ([3]; Corynebacterium species, N 30, agar dilution, read-out: MIC50) of 0.25 µg/mL (≈ 0.635 µM), an MIC90 ([3]; Corynebacterium species, N 30, agar dilution, read-out: MIC90) of 2 µg/mL (≈ 5.08 µM) and an MIC50 ([3]; Cutibacterium acnes, Propionibacterium acnes, N 21, agar dilution, read-out: MIC50) of 0.25 µg/mL (≈ 0.635 µM). The MIC90 ([3]; Cutibacterium acnes, Propionibacterium acnes, N 21, agar dilution, read-out: MIC90) was 0.25 µg/mL (≈ 0.635 µM), the “MIC Range” value ([3]; Enterobacter aerogene Quinolone-S, N 37) was 0.12 to 4 µg/mL and the MIC50 ([3]; Enterobacter aerogene Quinolone-S, N 37, read-out: MIC50) was 0.25 µg/mL (≈ 0.635 µM). The MIC90 ([3]; Enterobacter aerogene Quinolone-S, N 37, read-out: MIC90) was 2 µg/mL (≈ 5.08 µM), the “MIC Range” value ([3]; Enterobacter cloacae Quinolone-R, N 1) was greater than 8 µg/mL and the “MIC Range” value ([3]; Enterobacter cloacae Quinolone-S, N 58) was 0.12 to 2 µg/mL. For the same molecule, the MIC50 ([3]; Enterobacter cloacae, Enterobacter cloacae Quinolone-S, N 58, read-out: MIC50) was 0.25 µg/mL (≈ 0.635 µM), the MIC90 ([3]; Enterobacter cloacae, Enterobacter cloacae Quinolone-S, N 58, read-out: MIC90) was 0.5 µg/mL (≈ 1.27 µM) and the “MIC Range” value ([3]; Fusobacterium species, N 21, agar dilution) was 0.12 to 8 µg/mL. The MIC50 ([3]; Fusobacterium species, N 21, agar dilution, read-out: MIC50) was 0.25 µg/mL (≈ 0.635 µM), the MIC90 ([3]; H. influenzae, value used for PK/PD ratios of Study 424) was “^bMIC90: H. influenzae ≦0.06 μg/mL” and the “MIC Range” value ([3]; Haemophilus influenzae (all phenotypes), N 243) was “≦0.004-0.25 μg/mL”. For the same molecule, the “MIC Range” value ([3]; Haemophilus influenzae β-lactamase+, N 118) was 0.008 to 0.12 µg/mL, the “MIC Range” value ([3]; Haemophilus influenzae β-lactamase−, N 100) was “≦0.004-0.12 μg/mL” and the MIC90 ([3]; Haemophilus influenzae, H. influenzae, value used for PK/PD ratios of Study 424, read-out: MIC90) was no more than 0.06 µg/mL. For the same molecule, the MIC50 ([3]; Haemophilus influenzae, Haemophilus influenzae (all phenotypes), N 243, read-out: MIC50) was 0.03 µg/mL (≈ 0.0762 µM), the MIC50 ([3]; Haemophilus influenzae, Haemophilus influenzae β-lactamase+, N 118, read-out: MIC50) was 0.03 µg/mL (≈ 0.0762 µM) and the MIC50 ([3]; Haemophilus influenzae, Haemophilus influenzae β-lactamase− Ampicillin-R, N 25, read-out: MIC50) was 0.12 µg/mL (≈ 0.305 µM). The MIC90 ([3]; Haemophilus influenzae, Haemophilus influenzae β-lactamase− Ampicillin-R, N 25, read-out: MIC90) was 0.25 µg/mL (≈ 0.635 µM), the MIC50 ([3]; Haemophilus influenzae, Haemophilus influenzae β-lactamase−, N 100, read-out: MIC50) was 0.03 µg/mL (≈ 0.0762 µM) and the “MIC Range” value ([3]; Key Organisms Quinolone-S, N 894) was “≦0.004-1 μg/mL”. The MIC50 ([3]; Key Organisms Quinolone-S, N 894, read-out: MIC50) was 0.06 µg/mL (≈ 0.152 µM), the MIC90 ([3]; Key Organisms Quinolone-S, N 894, read-out: MIC90) was 0.12 µg/mL (≈ 0.305 µM) and the MIC50 ([3]; Key Organisms combined, N 1205) was 0.06 µg/mL. For the same molecule, the MIC90 ([3]; Key Organisms combined, N 1205, read-out: MIC90) was 1 µg/mL, the “MIC Range” value ([3]; Klebsiella oxytoca Quinolone-R, N 5) was 1 to 8 µg/mL and the MIC50 ([3]; Klebsiella oxytoca Quinolone-R, N 5, read-out: MIC50) was 8 µg/mL (≈ 20.3 µM). The “MIC Range” value ([3]; Klebsiella oxytoca Quinolone-S, N 45) was 0.06 to 1 µg/mL, the MIC90 ([3]; Klebsiella oxytoca, Klebsiella oxytoca Quinolone-S, N 45, read-out: MIC90) was 0.5 µg/mL (≈ 1.27 µM) and the MIC50 ([3]; Legionella pneumophila, N 50) was 0.03 µg/mL (≈ 0.0762 µM). For the same molecule, the MIC90 ([3]; Legionella pneumophila, N 50) was 0.03 µg/mL (≈ 0.0762 µM), the “MIC Range” value ([3]; Legionella pneumophila, N 50) was 0.015 to 0.06 µg/mL and the MIC50 ([3]; Moraxella catarrhalis, N 201, read-out: MIC50) was 0.06 µg/mL (≈ 0.152 µM). For the same molecule, the MIC90 ([3]; Moraxella catarrhalis, N 201, read-out: MIC90) was 0.12 µg/mL (≈ 0.305 µM), the “MIC Range” value ([3]; Moraxella species, N 30, agar dilution) was “≦0.06-0.13 μg/mL” and the MIC50 ([3]; Moraxella species, N 30, agar dilution, read-out: MIC50) was no more than 0.06 µg/mL. For the same molecule, the MIC90 ([3]; Moraxella species, N 30, agar dilution, read-out: MIC90) was 0.13 µg/mL (≈ 0.33 µM) and the “MIC Range” value ([3]; Morganella morganii Quinolone-S, N 39) was 0.03 to 2 µg/mL.
